Laboratory results from the supplement of paper PMC10307832.

Legend:
Assay in all cases: relative viability (nuclei count vs DMSO), 5 days (fraction); higher = more cells survive
Shikonin + Crizotinib = compound: CC(C)=CC[C@@H](O)C1=CC(=O)c2c(O)ccc(O)c2C1=O [Shikonin] + C[C@@H](Oc1cc(-c2cnn(C3CCNCC3)c2)cnc1N)c1c(Cl)ccc(F)c1Cl [Crizotinib] (partner 1 µM)
Method in brief: (§1)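 Relative viability is defined as nuclei in treated wells over nuclei in vehicle wells. Duplicate plates were run and medians reported. Lung cancer cell lines in 1536-well plates were dosed by pin tool one day after seeding, with one drug or with a fixed anchor-drug dose plus five library-drug doses (not always all listed) in √10 steps, and nuclei were counted after 5 days.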

[1] = compound: CC(C)N(CCCNC(=O)Nc1ccc(C(C)(C)C)cc1)C[C@H]1O[C@@H](n2ccc3c(N)ncnc32)[C@H](O)[C@@H]1O + O=C(CCCCCCC(=O)Nc1ccccc1)NO [Vorinostat] (partner 1 µM)
Method in brief: as §1

[2] = compound: CC(C)N(CCCNC(=O)Nc1ccc(C(C)(C)C)cc1)C[C@H]1O[C@@H](n2ccc3c(N)ncnc32)[C@H](O)[C@@H]1O + Cc1cc(Nc2cc(N3CCN(C)CC3)nc(Sc3ccc(NC(=O)C4CC4)cc3)n2)n[nH]1 [Tozasertib] (partner 0.1 µM)
Method in brief: as §1

Shikonin + Decitabine = compound: CC(C)=CC[C@@H](O)C1=CC(=O)c2c(O)ccc(O)c2C1=O [Shikonin] + Nc1ncn([C@H]2C[C@H](O)[C@@H](CO)O2)c(=O)n1 [Decitabine] (partner 2 µM)
Method in brief: as §1

Row | Cell Line | relative viability (Shikonin + Crizotinib; first compound 0.01 µM) | relative viability (Shikonin + Crizotinib; first compound 0.1 µM) | relative viability (Shikonin + Crizotinib; first compound 0.3162 µM) | relative viability (Shikonin + Crizotinib; first compound 1 µM) | relative viability ([1]; first compound 0.08 µM) | relative viability ([1]; first compound 0.253 µM) | relative viability ([1]; first compound 2.53 µM) | relative viability ([1]; first compound 8 µM) | relative viability ([2]; first compound 0.08 µM) | relative viability ([2]; first compound 0.253 µM) | relative viability ([2]; first compound 2.53 µM) | relative viability ([2]; first compound 8 µM) | relative viability (Shikonin + Decitabine; first compound 0.01 µM) | relative viability (Shikonin + Decitabine; first compound 0.1 µM) | relative viability (Shikonin + Decitabine; first compound 0.3162 µM) | relative viability (Shikonin + Decitabine; first compound 1 µM) | relative viability ([1]; first compound 0.8 µM) | relative viability ([2]; first compound 0.8 µM)
1 | ABC-1 | 1.72 | 1.15 | 1.13 | 0.531 | 1.19 | 1.29 | 1.07 | 0.919 | 0.183 | 0.174 | 0.183 | 0.178 | 1.33 | 1.28 | 1.21 | 1.02 |  | 
2 | NCI-H522 |  |  |  |  | 0.771 | 0.801 | 0.858 | 0.82 | 0.538 | 0.553 | 0.588 | 0.615 | 0.62 | 0.763 | 0.644 | 0.553 | 0.697 | 0.542
3 | PC-3 [JPC-3] | 1.03 | 1.14 | 1.03 | 0.986 | 0.813 | 0.761 | 0.741 | 0.695 | 0.856 | 0.976 | 0.851 | 0.763 | 0.765 | 0.896 | 0.843 | 0.82 |  | 0.831
4 | SW 900 |  |  |  |  | 0.639 | 0.38 | 0.562 | 0.548 | 0.683 | 0.696 | 0.543 | 0.438 | 0.373 | 0.536 | 0.395 | 0.396 |  | 
5 | A549 | 0.748 | 0.932 | 0.872 | 0.705 |  |  |  |  |  |  |  |  | 0.223 | 0.281 | 0.239 | 0.193 |  | 
6 | A-427 | 0.978 | 1.12 | 1.03 | 0.847 | 0.839 | 0.912 | 0.901 | 0.9 | 0.2 | 0.208 | 0.204 | 0.206 | 0.575 | 0.578 | 0.579 | 0.61 | 0.875 | 0.193
7 | NCI-H1792 | 1.1 | 0.796 | 1.03 | 1.14 |  |  |  |  |  |  |  |  | 0.567 | 0.553 | 0.644 | 0.681 |  | 
8 | LCLC-97TM1 | 0.573 | 0.46 | 0.3 | 0.247 | 0.893 | 0.656 | 0.661 | 0.831 | 0.21 | 0.17 | 0.248 | 0.21 | 0.257 | 0.232 | 0.215 | 0.242 | 0.801 | 0.258
9 | NCI-H1703 | 0.873 | 0.671 | 0.633 | 0.512 |  |  |  |  |  |  |  |  |  |  |  |  |  | 
10 | LCLC-103H | 0.953 | 1 | 1.13 | 1.06 | 0.717 | 0.692 | 0.701 | 0.748 | 0.603 | 0.519 | 0.516 | 0.478 | 0.711 | 0.727 | 0.74 | 0.75 | 0.585 | 0.432
11 | SK-LU-1 | 1.11 | 0.937 | 0.928 | 0.877 | 0.742 | 0.775 | 0.87 | 0.736 | 0.35 | 0.41 | 0.49 | 0.346 | 0.631 | 0.688 | 0.59 | 0.635 | 0.87 | 0.352
